Measured values: US20060111327A1, “Derivatives of triptolide having a high immunosuppressive effect and high water solubility, and uses thereof” (priority 2002, published 2006)
Where “and” joins values, the source holds several entries; their conditions need not be identical. Equal entries are not always repeated. Where two headings read alike, the source gives them in different places.

What was measured:
[1] = system: cotton ball granulation in rat; set-up: species or system Wister rats; conditions: in vivo
[2] = Cell membrane permeability (unpublished experimental data); assay type: in vitro ADME; conditions: our unpublished experimental data
[3] = background statement; cited from earlier work
[4] = in vivo; cited from earlier work
IL-2 = assay type: cell-based, rat
IL-6 = assay type: cell-based, rat
iNOS = assay type: cell-based, rat
physchem = conditions: water
[5] = system: rat adjuvant-induced arthritis; set-up: species or system SD rats; conditions: in vivo
[6] = system: rat adjuvant-induced arthritis; conditions: in vivo
[7] = system: transplanted heart (C57BL mouse heart grafted into balb/c mouse); conditions: in vivo
Kunming mice = conditions: both, mouse, in vivo, iv
in vivo = conditions: both, Kunming, mouse

In the case of `C[C@]12CCC(=O)C=C1CC[C@@H]1[C@@H]2[C@@H](O)C[C@@]2(C)[C@H]1CC[C@]2(O)C(=O)CO` [Hydrocordisone, reference compound], the Inhibition of swelling [1] is reported as 42.2% and the “effect against cotton ball granulation” value [1] is reported as “significantly decreased weight of cotton ball granulation”.

In the case of `CC(C)[C@]12O[C@H]1[C@@H]1O[C@]13[C@]1(O[C@H]1C[C@H]1C4=C(CC[C@@]13C)C(=O)OC4)[C@@H]2O` [triptolide], the “cell membrane permeability” value [2] is given as “Low cell membrane permeability”, the “water solubility” value [3] is given as “Low water solubility” and the LD50 [4] is given as 0.85 mg/kg body weight.

With `CC(C)[C@]12O[C@H]1C1O[C@]13[C@]1(O[C@H]1C[C@H]1C4=C(CC[C@@]13C)C(=O)OC4)[C@@H]2O[PH](=O)[O-].[Na+]` (stereo partly drawn) [WDY4, sodium triptolide-14-β-phosphite] the “inhibition of LPS- or PHA-induced IL-2 mRNA expression” value (IL-2) was “completely inhibited”, the “inhibition of mRNA expression of IL-6” value (IL-6) was “completely” and the “inhibition of mRNA expression of iNOS” value (iNOS) was “completely”. The solubility (physchem) was over 100 mg/mL.

With `CC(C)[C@@]1(O)[C@H](SC#N)C2O[C@]23[C@]2(O[C@H]2C[C@H]2C4=C(CC[C@@]23C)C(=O)OC4)[C@@H]1OC(=O)CCC(=O)O` (stereo partly drawn) [WDY6, 12-β-thiocyano-13-α-hydroxy triptolide-14-β-succinic acid mono-ester] the Inhibition of swelling [1] was 42.6% and 47.1% and 49.0%, the “effect against cotton ball granulation” value [1] was “significant effect” and the “effect on thickness of the contralateral paw (left hind paw)” value [5] was “significantly decreased”. For the same compound, the “effect in the treatment of adjuvant-induced rat arthritis” value [6] was “significant effect”, the Average survival time [7] was 12.7 days and the “body weight and appetite of treated mice” value [7] was “did not show a decrease of body weight and their appetites were normal”.

In the case of `CC(C)[C@]12OP(=O)([O-])O[C@H]1[C@]13O[C@H]1C[C@H]1C4=C(CC[C@]1(C)[C@@]31OC1[C@H]2SC#N)C(=O)OC4.[Na+]` (stereo partly drawn) [WDY1, sodium 12-β-thiocyano triptolide-13-α-14-β-phosphate], the Inhibition of swelling [1] is reported as 45.7% and 59.3% and 46.3%, the “effect against cotton ball granulation” value [1] is reported as “significant effect” and the “Death No. of mice” value (Kunming mice; 98 mg/kg) is reported as 0. The Mortality (Kunming mice; 98 mg/kg) was 0%, the “Death No. of mice” value (Kunming mice; 109 mg/kg) was 1 and the Mortality (Kunming mice; 109 mg/kg) was 10%. The “Death No. of mice” value (Kunming mice; 122 mg/kg) was 4, the Mortality (Kunming mice; 122 mg/kg) was 40% and the “Death No. of mice” value (Kunming mice; 135 mg/kg) was 8. For the same compound, the Mortality (Kunming mice; 135 mg/kg) was 80%, the “Death No. of mice” value (Kunming mice; 150 mg/kg) was 9 and the Mortality (Kunming mice; 150 mg/kg) was 90%. The LD50 (in vivo; acute toxicity LD50) was 126 mg/kg, the LD50 (in vivo; iv, 95% limit of LD50) was 119 to 133 mg/kg and the LD50 (in vivo; iv, LD50) was 126 mg/kg. The solubility (physchem) was over 100 mg/mL.

`CC(C)[C@]12OP(=O)([O-])O[C@H]1[C@]13O[C@H]1C[C@H]1C4=C(CC[C@]1(C)[C@@]31OC1[C@H]2Cl)C(=O)OC4.[Na+]` (stereo partly drawn) [WDY2, sodium 12-β-chlorotriptolide-13-α-14-13-phosphate] showed a solubility (physchem) of over 100 mg/mL.

With `CC(C)[C@]12O[C@H]1C1O[C@]13[C@]1(O[C@H]1C[C@H]1C4=C(CC[C@@]13C)C(=O)OC4)[C@@H]2OP(=O)([O-])[O-].[Na+].[Na+]` (stereo partly drawn) [WDY7, disodium triptolide-14-β-phosphate] the Inhibition of swelling [1] was 41.5% and 55.6% and 56.8%, the “effect against cotton ball granulation” value [1] was “significant effect” and the “effect in the treatment of adjuvant-induced rat arthritis” value [6] was “significant effect”. For the same compound, the Average survival time [7] was 13.8 days, the “anti-rejection effect” value [7] was “significant anti-rejection effect” and the “body weight and appetite of treated mice” value [7] was “did not show a decrease of body weight and their appetites were normal”. The LD50 (in vivo; acute toxicity LD50) was 0.8 mg/kg and the solubility (physchem) was over 100 mg/mL.
